Results as given in the supplement of paper PMC10307832.

Tests used:
Experiment in all cases: relative viability (nuclei count vs DMSO), 5 days (fraction); higher = more cells survive
[1] = test system: LCLC-103H
Method in brief: (§1)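 Each reported value is a median over duplicate plates. It expresses relative viability: treated-well nuclei count divided by vehicle-well nuclei count. Lung cancer cell lines in 1536-well plates were dosed by pin tool a day after seeding, alone with one drug or with a fixed anchor-drug dose plus five library-drug doses (not always all listed) in √10 steps, and nuclei were counted after 5 days.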

[2] = test system: LK-2
Method in brief: as §1

[3] = test system: RERF-LC-KJ
Method in brief: as §1

[4] = test system: NCI-H661
Method in brief: as §1

[5] = test system: NCI-H1666
Method in brief: as §1

[6] = test system: PC-14
Method in brief: as §1

[7] = test system: NCI-H727
Method in brief: as §1

[8] = test system: NCI-H2170
Method in brief: as §1

[9] = test system: NCI-H1437
Method in brief: as §1

[10] = test system: NCI-H1355
Method in brief: as §1

[11] = test system: ChaGo-K-1
Method in brief: as §1

Cc1cn(-c2cc(NC(=O)c3ccc(C)c(Nc4nccc(-c5cccnc5)n4)c3)cc(C(F)(F)F)c2)cn1 [Nilotinib] + Cc1cc(Nc2cc(N3CCN(C)CC3)nc(Sc3ccc(NC(=O)C4CC4)cc3)n2)n[nH]1 [Tozasertib] (partner 0.1 µM) showed a relative viability ([1]; first compound 0.001 µM) of 0.347, a relative viability ([1]; first compound 0.003162 µM) of 0.425 and a relative viability ([1]; first compound 0.01 µM) of 0.452. For the same compound, the relative viability ([1]; first compound 0.03162 µM) was 0.364, the relative viability ([1]; first compound 0.1 µM) was 0.293 and the relative viability ([2]; first compound 0.001 µM) was 0.181. The relative viability ([2]; first compound 0.003162 µM) was 0.163, the relative viability ([2]; first compound 0.01 µM) was 0.155 and the relative viability ([2]; first compound 0.03162 µM) was 0.175. It also gave a relative viability ([3]; first compound 0.001 µM) of 0.335, a relative viability ([3]; first compound 0.003162 µM) of 0.416 and a relative viability ([3]; first compound 0.01 µM) of 0.305. The relative viability ([3]; first compound 0.03162 µM) was 0.349, the relative viability ([3]; first compound 0.1 µM) was 0.302 and the relative viability ([4]; first compound 0.001 µM) was 0.346. For the same compound, the relative viability ([4]; first compound 0.003162 µM) was 0.357, the relative viability ([4]; first compound 0.01 µM) was 0.364 and the relative viability ([4]; first compound 0.03162 µM) was 0.382. For the same compound, the relative viability ([4]; first compound 0.1 µM) was 0.355, the relative viability ([5]; first compound 0.001 µM) was 0.493 and the relative viability ([5]; first compound 0.003162 µM) was 0.566. The relative viability ([5]; first compound 0.01 µM) was 0.531, the relative viability ([5]; first compound 0.03162 µM) was 0.518 and the relative viability ([5]; first compound 0.1 µM) was 0.556. For the same compound, the relative viability ([6]; first compound 0.001 µM) was 0.682, the relative viability ([6]; first compound 0.003162 µM) was 0.485 and the relative viability ([6]; first compound 0.01 µM) was 0.53. The relative viability ([6]; first compound 0.03162 µM) was 0.519, the relative viability ([6]; first compound 0.1 µM) was 0.615 and the relative viability ([7]; first compound 0.001 µM) was 0.599. The relative viability ([7]; first compound 0.003162 µM) was 0.624, the relative viability ([7]; first compound 0.01 µM) was 0.503 and the relative viability ([7]; first compound 0.03162 µM) was 0.437. It also gave a relative viability ([7]; first compound 0.1 µM) of 0.599, a relative viability ([8]; first compound 0.001 µM) of 0.734 and a relative viability ([8]; first compound 0.003162 µM) of 0.77. The relative viability ([8]; first compound 0.01 µM) was 0.795, the relative viability ([8]; first compound 0.03162 µM) was 0.599 and the relative viability ([8]; first compound 0.1 µM) was 0.55. The relative viability ([9]; first compound 0.001 µM) was 0.355, the relative viability ([9]; first compound 0.003162 µM) was 0.499 and the relative viability ([9]; first compound 0.01 µM) was 0.4. For the same compound, the relative viability ([9]; first compound 0.03162 µM) was 0.304, the relative viability ([9]; first compound 0.1 µM) was 0.317 and the relative viability ([10]; first compound 0.001 µM) was 0.512. It also gave a relative viability ([10]; first compound 0.003162 µM) of 0.454, a relative viability ([10]; first compound 0.01 µM) of 0.442 and a relative viability ([10]; first compound 0.03162 µM) of 0.343. For the same compound, the relative viability ([10]; first compound 0.1 µM) was 0.316, the relative viability ([11]; first compound 0.001 µM) was 0.205 and the relative viability ([11]; first compound 0.003162 µM) was 0.229. The relative viability ([11]; first compound 0.01 µM) was 0.202, the relative viability ([11]; first compound 0.03162 µM) was 0.162 and the relative viability ([11]; first compound 0.1 µM) was 0.138.
